Laboratory results taken from the SangsterLogP compilation.

Experiment: method code SF-AS,RC, from DOI: 10.1021/es00166a009, PMID: 22195514
Conditions: pH 1.5
Work on `Cc1cccc(O)c1[N+](=O)[O-]` yielded a logD of 2.29.

Experiment: method code SF-AS, from DOI: 10.1021/es00166a009, PMID: 22195514
Conditions: not given
With `Cc1ccc([N+](=O)[O-])c(O)c1` the logP was 2.31.

Same assay, conditions: pH 1.5
For `O=[N+]([O-])c1cc(C(F)(F)F)ccc1O`, the logD was 2.34. Compound `O=[N+]([O-])c1ccccc1O` has a logD of 1.89. Work on `COc1ccc(O)c([N+](=O)[O-])c1` yielded a logD of 2.02. `Cc1ccc(O)c([N+](=O)[O-])c1` gave a logD of 2.37. For `O=[N+]([O-])c1cc(-c2ccccc2)ccc1O`, the logD was 3.71. In the case of `O=[N+]([O-])c1ccc(F)cc1O`, the logD is reported as 1.91. For `CCC(C)c1ccc(O)c([N+](=O)[O-])c1` (stereo unspecified), the logD was 3.84. For `Cc1cc(O)c([N+](=O)[O-])cc1Cl`, the logD was 2.93. With `O=Cc1ccc(O)c([N+](=O)[O-])c1` the logD was 1.48.
